Test: recombinant barcode read abundance after kanamycin selection (control-corrected) (log10(CPM+1)); higher = more efficient recombination; sequences stand for … in AGTGCAGAGAAAATCGGCCAGTTTTCTCTGCCTGCAGTCCGCATGCCGT…AGATTTATGCAGCGGACTGCCTTTCTCCCAAAGTGATAAACCGGACAGTATCATGGACCGGTTTTCCCGGTAATCCGTATTTGCAAGGTTGGTTTCACT; site = the 11-nt target
Summary of the method: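 Values are log10(CPM+1) from a pooled E. coli screen of targets paired with IS621 bridge RNA target-binding loops. Recombination efficiency here means counts per million of recombinant-junction barcodes, averaged and control-corrected. Plates were chloramphenicol/ampicillin LB agar for the control and chloramphenicol/ampicillin/kanamycin with 0.1 mM IPTG, two replicates each.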
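Also: IS621 recombinase and bridge RNA in Escherichia coli cells.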

Row | Sequence | recombinant barcode read abundance (log10)
1 | ATATGTACTTGGGTTCTAACCTGTTGCCG (site ATATGTACTCG) | 1.07
2 | ATATGTACTTGGGTTCTAACCTGTTGCCG (site ATATGTACTTG) | 0.167
3 | ATATGTCCTTGGGTTCTAACCTGTTGCAG (site ATAGGACCTCT) | 0
4 | ATATGTCCTTGGGTTCTAACCTGTTGCAG (site ATATGTCCTCT) | 1.88
5 | ATATTATCTTGGGTTCTAACCTGTTGCCA (site ATATGATCTAG) | 0.0788
6 | ATATTATCTTGGGTTCTAACCTGTTGCCA (site ATATTATCTTG) | 0.29
7 | ATATTGTCTTGGGTTCTAACCTGTTGCCA (site ATATTGCCTAG) | 0.0374
8 | ATATTGTCTTGGGTTCTAACCTGTTGCCA (site ATATTGTCTTG) | 0.611
9 | ATCACTACTTGGGTTCTAACCTGTTGCCT (site ATCACTACTAG) | 0.207
10 | ATCACTACTTGGGTTCTAACCTGTTGCCT (site CTTACTACTAG) | 0.0823
11 | ATCCGCTCTTGGGTTCTAACCTGTTGCCT (site ATCCGCTCTAG) | 2.06
12 | ATCCGCTCTTGGGTTCTAACCTGTTGCCT (site CTCCGCTCTAG) | 1
13 | ATCCGCTCTTGGGTTCTAACCTGTTGCCT (site GTCCGCTCTAG) | 0.0221
14 | ATCCGCTCTTGGGTTCTAACCTGTTGCCT (site TTCCGCTCTAG) | 0.771
15 | ATCCTACCTTGGGTTCTAACCTGTTGCTT (site ATCCTACCTAA) | 1.72
16 | ATCCTACCTTGGGTTCTAACCTGTTGCTT (site ATCGTACCTCA) | 0.113
17 | ATCGAGTCTTGGGTTCTAACCTGTTGCCA (site ATCGAGTCTTG) | 0.276
18 | ATCGAGTCTTGGGTTCTAACCTGTTGCCA (site CAAATCCCTAC) | 0.112
19 | ATCGGAACTTGGGTTCTAACCTGTTGCCT (site ATCGGAACTAG) | 1.01
20 | ATCGGAACTTGGGTTCTAACCTGTTGCCT (site ATCGGACCTAG) | 0.0301
21 | ATCGGAACTTGGGTTCTAACCTGTTGCCT (site ATCGGAGCTAG) | 0.13
22 | ATCGGAACTTGGGTTCTAACCTGTTGCCT (site ATCGGATCTAG) | 0.209

Row | Sequence | recombinant barcode read abundance (log10)
23 | ATCGGACCTTGGGTTCTAACCTGTTGCTG (site ATCGGACCTCA) | 0.901
24 | ATCGGACCTTGGGTTCTAACCTGTTGCTG (site TATAATGCTAC) | 0.148
25 | ATCGGAGCTTGGGTTCTAACCTGTTGCAG (site ATCGGAGCTCA) | 0.504
26 | ATCGGAGCTTGGGTTCTAACCTGTTGCAG (site ATCGGAGCTCC) | 0.166
27 | ATCGGAGCTTGGGTTCTAACCTGTTGCAG (site ATCGGAGCTCG) | 0.294
28 | ATCGGAGCTTGGGTTCTAACCTGTTGCAG (site ATCGGAGCTCT) | 0.953
29 | ATCGGAGCTTGGGTTCTAACCTGTTGCCG (site ATCGGAGCTCA) | 0.165
30 | ATCGGAGCTTGGGTTCTAACCTGTTGCCG (site ATCGGAGCTCC) | 0.0715
31 | ATCGGAGCTTGGGTTCTAACCTGTTGCCG (site ATCGGAGCTCG) | 0.497
32 | ATCGGAGCTTGGGTTCTAACCTGTTGCCG (site ATCGGAGCTCT) | 0.123
33 | ATCGGTCCTTGGGTTCTAACCTGTTGCCT (site ATAGGTCCTAG) | 0.476
34 | ATCGGTCCTTGGGTTCTAACCTGTTGCCT (site ATCGGTCCTAG) | 1.29
35 | ATCGGTCCTTGGGTTCTAACCTGTTGCCT (site ATGGGTCCTAG) | 0.0682
36 | ATCGGTCCTTGGGTTCTAACCTGTTGCCT (site ATTGGTCCTAG) | 0.174
37 | ATCGTACCTTGGGTTCTAACCTGTTGCTA (site ATCGTACCTTA) | 0.0937
38 | ATCGTACCTTGGGTTCTAACCTGTTGCTA (site CAAAAGGCTAG) | 0.973
39 | ATCGTTGCTTGGGTTCTAACCTGTTGCCT (site ATCGTTGCTAG) | 0.657
40 | ATCGTTGCTTGGGTTCTAACCTGTTGCCT (site CTCGTTGCTAG) | 0.0176
41 | ATCGTTGCTTGGGTTCTAACCTGTTGCCT (site GTCGTTGCTAG) | 0.0617
42 | ATCGTTGCTTGGGTTCTAACCTGTTGCCT (site TTCGTTGCTAG) | 0.0404
43 | ATCTAGGCTTGGGTTCTAACCTGTTGCCG (site ATCTAGGCTCG) | 0.0337
44 | ATCTAGGCTTGGGTTCTAACCTGTTGCCG (site CATAGATCTAT) | 0.099

Row | Sequence | recombinant barcode read abundance (log10)
45 | ATCTGGGCTTGGGTTCTAACCTGTTGCCT (site AACTGGGCTAG) | 0.339
46 | ATCTGGGCTTGGGTTCTAACCTGTTGCCT (site ACCTGGGCTAG) | 0.0625
47 | ATCTGGGCTTGGGTTCTAACCTGTTGCCT (site AGCTGGGCTAG) | 0.123
48 | ATCTGGGCTTGGGTTCTAACCTGTTGCCT (site ATCTGGGCTAG) | 0.0992
49 | ATCTTAACTTGGGTTCTAACCTGTTGCCT (site ATCTTAACTAG) | 0.183
50 | ATCTTAACTTGGGTTCTAACCTGTTGCCT (site ATCTTACCTAG) | 0.643
51 | ATCTTAACTTGGGTTCTAACCTGTTGCCT (site ATCTTAGCTAG) | 0.337
52 | ATCTTAACTTGGGTTCTAACCTGTTGCCT (site ATCTTATCTAG) | 0.00981
53 | ATCTTGTCTTGGGTTCTAACCTGTTGCCT (site ATCTTGTCTAG) | 0.977
54 | ATCTTGTCTTGGGTTCTAACCTGTTGCCT (site ATCTTGTCTCG) | 0.0162
55 | ATGAAGACTTGGGTTCTAACCTGTTGCCT (site ATAAAGACTAG) | 2.09
56 | ATGAAGACTTGGGTTCTAACCTGTTGCCT (site ATCAAGACTAG) | 1.07
57 | ATGAAGACTTGGGTTCTAACCTGTTGCCT (site ATGAAGACTAG) | 2.13
58 | ATGAAGACTTGGGTTCTAACCTGTTGCCT (site ATTAAGACTAG) | 1.12
59 | ATGACCGCTTGGGTTCTAACCTGTTGCCA (site AGGACCACTTG) | 0.246
60 | ATGACCGCTTGGGTTCTAACCTGTTGCCA (site ATGACCGCTTG) | 1.28
61 | ATGACTACTTGGGTTCTAACCTGTTGCTA (site ATGACTACTGA) | 0.136
62 | ATGACTACTTGGGTTCTAACCTGTTGCTA (site ATGACTACTTA) | 0.456
63 | ATGAGAACTTGGGTTCTAACCTGTTGCCT (site ATGAGAACTAG) | 1.5
64 | ATGAGAACTTGGGTTCTAACCTGTTGCCT (site ATGAGAACTCG) | 0.361
65 | ATGATTCCTTGGGTTCTAACCTGTTGCCT (site AAGATTCCTAG) | 0
66 | ATGATTCCTTGGGTTCTAACCTGTTGCCT (site ACGATTCCTAG) | 0.0545

Row | Sequence | recombinant barcode read abundance (log10)
67 | ATGATTCCTTGGGTTCTAACCTGTTGCCT (site AGGATTCCTAG) | 0.0244
68 | ATGATTCCTTGGGTTCTAACCTGTTGCCT (site ATGATTCCTAG) | 0.62
69 | ATGATTGCTTGGGTTCTAACCTGTTGCCT (site ATGAATGCTAG) | 0.149
70 | ATGATTGCTTGGGTTCTAACCTGTTGCCT (site ATGATTGCTAG) | 1.18
71 | ATGCCCACTTGGGTTCTAACCTGTTGCCT (site ATGCCAACTAG) | 0.0683
72 | ATGCCCACTTGGGTTCTAACCTGTTGCCT (site ATGCCCACTAG) | 1.33
73 | ATGCCCACTTGGGTTCTAACCTGTTGCCT (site ATGCCGACTAG) | 0.049
74 | ATGCCCACTTGGGTTCTAACCTGTTGCCT (site ATGCCTACTAG) | 0.106
75 | ATGCGAGCTTGGGTTCTAACCTGTTGCAG (site ATGCGAGCTCA) | 0.791
76 | ATGCGAGCTTGGGTTCTAACCTGTTGCAG (site ATGCGAGCTCC) | 0.0805
77 | ATGCGAGCTTGGGTTCTAACCTGTTGCAG (site ATGCGAGCTCG) | 0.549
78 | ATGCGAGCTTGGGTTCTAACCTGTTGCAG (site ATGCGAGCTCT) | 1.87
79 | ATGGACCCTTGGGTTCTAACCTGTTGCTC (site ATGGACCCTGA) | 1.93
80 | ATGGACCCTTGGGTTCTAACCTGTTGCTC (site TATCGGGCTCT) | 0.0488
81 | ATGGATACTTGGGTTCTAACCTGTTGCGT (site AGGGATACTAC) | 0.219
82 | ATGGATACTTGGGTTCTAACCTGTTGCGT (site ATGGATACTAC) | 2.51
83 | ATGGCGGCTTGGGTTCTAACCTGTTGCCT (site ATGGCGGCTAG) | 1.69
84 | ATGGCGGCTTGGGTTCTAACCTGTTGCCT (site GTGGAGGCTAG) | 0.0374
85 | ATGGGCACTTGGGTTCTAACCTGTTGCCT (site ATAGGAACTAG) | 0.198
86 | ATGGGCACTTGGGTTCTAACCTGTTGCCT (site ATGGGCACTAG) | 0.639

Reference: the supplement of paper PMC11208160
